In US20250009886A1, “COMPOSITIONS FOR SMALL MOLECULE THERAPEUTIC AGENT COMPOUNDS” (Delpor, Inc., priority 2016, published 2025):
Values after ≈ are worked out from the molar mass of the structure shown.

Experiments:
[1] = cited from earlier work; for Solubility: of the organic acid
[2] = In vitro release of risperidone from devices loaded with various risperidone addition salts (Example 5); type: physicochemical; conditions: for Percent Risperidone Released at Day 15: cumulative percent of total risperidone released from device, two-fold molar excess of acid, PBS, 37° C., 15 days; for cumulative in vitro release of risperidone after 15 days (percent of total loaded drug): device in 100 mL PBS at 37° C., risperidone salt with two-fold molar excess of acid

Row | Percent Risperidone Released at Day 15 [2] | cumulative in vitro release of risperidone after 15 days (percent of total loaded drug) [2] | SMILES | Solubility [1] | insolubility in water ([1]; neutral free base, 20-25° C.)
1 |  |  | O=C(O)C(O)c1ccccc1 (racemic) [rac-Mandelic] | 158.7 mg/mL (≈ 1040 mM) | 
2 | 94% | 94% | O=C(O)CNC(=O)c1ccccc1 [Hippuric acid] |  | 
3 | 92% | 92% | O=C(O)CCc1ccc(O)cc1 [Hydroxyphenylpropionic acid, 3-(4-hydroxyphenyl) propionic acid] |  | 
4 | 45% |  | Nc1ccc(C(=O)O)cc1 [PABA, 4-aminobenzoic acid] |  | 
5 |  |  | Cc1nc2n(c(=O)c1CCN1CCC(c3noc4cc(F)ccc34)CC1)CCCC2 [Risperidone, risperidone, reference compound] |  | > 10000 volumes of water per volume of drug
6 | 55% |  | O=C(O)CCCCCCCCC(=O)O [Sebacic acid, sebacic acid] |  | 
7 | 2.6% | 2.6% | O=C(O)c1ccc(C(=O)O)cc1 [Terephthalic acid] |  | 
8 | 16% | 16% | O=c1[nH]c(=O)c2[nH]c(=O)[nH]c2[nH]1 [Uric acid] |  | 
9 | 55% |  | COc1cc(C(=O)O)ccc1O [Vinallic acid, vanillic acid] |  | 
10 |  |  | O=C(O)/C=C/c1ccc(O)cc1 [p-Coumaric, p-coumaric acid] | 1 to 10 mg/mL | 
